Three compounds from ChEMBL document CHEMBL1146461, “Vibsane diterpenoids from the leaves and flowers of Viburnum odoratissimum” (2004) can be followed below.

Experiment [1] is described as follows: Cytotoxicity against human HONE1 assessed as survival at 20 ug/ml by MTS method. As to conditions: read-out: Survival. The format is functional.
The test system of experiment [2] is NUGC-3. Put plainly: Cytotoxicity against human NUGC3 assessed as survival at 20 ug/ml by MTS method. As to conditions: read-out: Survival. The format is functional.

With `C=C(C)C(CC[C@@]1(C)CC=C(COC(C)=O)C(=O)[C@@H](CC(C)=O)[C@@H]1/C=C/OC(=O)C=C(C)C)OC(C)=O` (stereo not given in full), the viability at 20 µg/mL in experiment [1] and in experiment [2] was 0% in each case. With `CC(=O)C[C@@H]1C(=O)C(COC(C)=O)=CC[C@](C)(C/C=C/C(C)(C)OC(C)=O)[C@H]1/C=C/OC(=O)C=C(C)C`, the viability at 20 µg/mL in experiment [1] and in experiment [2] was 0% each time.

`C=C(C)C(O)CC[C@@]1(C)CC=C(CO)C(=O)[C@H](CC(C)=O)[C@@H]1/C=C/OC(=O)C=C(C)C` (stereo not given in full): the viability at 20 µg/mL in experiment [2] is 58%.
